From patent publication US20120035214A1, “RENIN INHIBITORS” (Merck Canada Inc., priority 2009, published 2012)

Key:
[1] = target: T1, Human recombinant renin (Homo sapiens, UniProt P00797); assay: Inhibition of human recombinant renin (QFRET, buffer); assay type: biochemical; settings: buffer: 50 mM MOPS pH 7.4, 100 mM NaCl, 0.002% Tween 20; 37° C., 3 hours
T1 construct: purchased Proteos
T1 sequence (P00797 67-406): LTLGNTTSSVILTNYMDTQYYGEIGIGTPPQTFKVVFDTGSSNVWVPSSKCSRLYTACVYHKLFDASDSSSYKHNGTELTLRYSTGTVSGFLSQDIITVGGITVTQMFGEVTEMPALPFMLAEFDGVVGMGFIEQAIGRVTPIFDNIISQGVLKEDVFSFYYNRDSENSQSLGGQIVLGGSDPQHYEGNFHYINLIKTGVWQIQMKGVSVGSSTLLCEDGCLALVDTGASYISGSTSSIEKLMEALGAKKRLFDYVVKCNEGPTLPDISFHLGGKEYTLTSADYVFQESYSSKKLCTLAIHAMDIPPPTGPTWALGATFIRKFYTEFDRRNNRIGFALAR
Protocol: Inhibition of Human Recombinant Renin
Human recombinant renin (Proteos) in 50 mM MOPS pH 7.4, 100 mM NaCl, 0.002% Tween 20 at a final concentration of […] is incubated with inhibitors from a 50 fold concentrated DMSO solution and 6 μM of an internally-quenched fluorescent peptide: DNP-[…]D,L-Amp (SEQ ID NO: 1); Paschalidou K. et al., Biochem J., 2004, 382, 1031). The reactions take place in a Costar 384 well black plate (#3573) at 37° C. for 3 hours. Fluorescence is measured at times 0 and 3 hours with a SpectraMax Gemini EM reader set at an excitation wavelength of 328 nm and at an emission wavelength of 388 nm. Background fluorescence at t=0 is subtracted from the measurement at t=3 hours. Inhibitory activity of the compounds is expressed as IC50.

[2] = target: T2, recombinant renin in human plasma (Homo sapiens, UniProt P00797); assay: Inhibition of renin in human plasma (QFRET, plasma); assay type: biochemical; settings: human EDTA plasma with 1 nM recombinant renin added; 37° C., 1 hour
T2 construct: purchased Proteos
T2 sequence (P00797 67-406): T1 sequence (P00797 67-406)
Protocol: Inhibition of Renin in Human Plasma
Human EDTA-collected plasma is rapidly thawed in warm water and centrifuged at 2900 g for 15 minutes at 4° C. The supernatant is collected and recombinant renin (Proteos) is added at a final concentration of 1 nM. The plasma is transferred to a Costar black 384 well plate (#3573). Renin inhibitors are added from a 17.5 fold concentrated DMSO solution and pre-incubated at 37° C. for 10 minutes. The internally-quench fluorescent peptide QXL520™-[…](5-FAM) (Anaspec), SEQ ID NO: 2, is diluted in 3M Tris pH 7.2, 200 mM EDTA and added to the plasma. The final concentrations are: 6 μM substrate, 342 mM Tris, 23 mM EDTA. The plate is incubated at 37° C. for 1 hour. The plate is read in a SpectraMax Gemini EM reader set at an excitation wavelength of 490 nm and an emission wavelength of 520 nm at times 0 and 1 hour. Background fluorescence at t=0 is subtracted from the measurement at t=1 hour. Inhibitory activity of the compounds is expressed as IC50.

Structure (SMILES) | IC50 [1] | IC50 [2]
COCCCc1ccccc1-c1ccc([C@H]2CNCC[C@@H]2c2ccc(N)nc2)c(Cl)c1 (racemic) [Structure 52] | 150 nM | 1630 nM
COCCCc1ccccc1-c1ccc([C@H]2CNCC[C@@H]2c2cccnc2N)c(Cl)c1 (racemic) [Structure 53] | 12 nM | 250 nM
CCOC(=O)NCCc1ccccc1-c1ccc([C@H]2CNCC[C@@H]2c2ccn(C)c(=O)c2)c(Cl)c1 (racemic) [Structure 63] | 16 nM | 24 nM
COCC(=O)NCCc1ccccc1-c1ccc([C@H]2CNCC[C@@H]2c2ccn(C)c(=O)c2)c(Cl)c1 (racemic) [Structure 64] | 110 nM | 77 nM
COc1cc(CCNC(C)=O)c(-c2ccc([C@H]3CNCC[C@@H]3c3ccn(C)c(=O)c3)c(Cl)c2)cc1OC (racemic) [Structure 66] | 1320 nM | 4900 nM
CC(=O)NCCc1ccccc1-c1ccc([C@@H]2CNCC[C@H]2c2cccnc2)c(C)c1 [Structure 5] | 1410 nM | 7280 nM
CC(=O)NCCc1ccccc1-c1ccc([C@@H]2CNCC[C@H]2c2cccnc2)c(Cl)c1 [Structure 14] | 2630 nM | > 9500 nM
CC(=O)NCCc1ccccc1-c1ccc([C@@H]2CNCC[C@H]2c2cc(F)cc(F)c2)c(C)c1 [Structure 17] | 530 nM | 11600 nM
CC(=O)NCCc1ccccc1-c1ccc([C@@H]2CNCC[C@H]2c2ccn(C)c(=O)c2)c(Cl)c1 [Structure 60] | 710 nM | 1350 nM
O[C@]1(c2ccc(F)c(F)c2)CCNC[C@@H]1c1cc(-c2ccc(F)cc2Br)no1 [Structure 67] | 400 nM | 8650 nM

Compounds with a lower IC50 [1], results first:

IC50 [1] | IC50 [2] | Structure (SMILES)
6.5 nM | 6 nM | CC(=O)NCCc1ccc(F)cc1-c1ccc([C@H]2CNCC[C@@H]2c2ccn(C)c(=O)c2)c(Cl)c1 (racemic) [Structure 65]
6.4 nM | 80 nM | COCCCc1ccccc1-c1ccc([C@H]2CNCC[C@@H]2c2ccn(C)c(=O)c2)c(Cl)c1 (racemic) [Structure 57]
6.2 nM | 7.9 nM | CCC(=O)NCCc1ccccc1-c1ccc([C@H]2CNCC[C@@H]2c2ccn(C)c(=O)c2)c(Cl)c1 (racemic) [Structure 61]
6.1 nM | 28 nM | CC(=O)NCCc1ccccc1-c1ccc([C@H]2CNCC[C@@H]2c2cccnc2)c(C)c1 [Structure 4]
4.2 nM | 4.9 nM | COC(=O)NCCc1ccccc1-c1ccc([C@H]2CNCC[C@@H]2c2ccn(C)c(=O)c2)c(Cl)c1 (racemic) [Structure 62]
3.6 nM | 7.1 nM | CC(=O)NCCc1ccccc1-c1ccc([C@H]2CNCC[C@@H]2c2ccn(C)c(=O)c2)c(Cl)c1 (racemic) [Structure 58]
2.1 nM | 3.4 nM | CC(=O)NCCc1ccccc1-c1ccc([C@H]2CNCC[C@@H]2c2ccn(C)c(=O)c2)c(Cl)c1 [Structure 59]
1.5 nM | 4.1 nM | CC(=O)NCCc1ccccc1-c1ccc([C@H]2CNCC[C@@H]2c2cccnc2)c(Cl)c1 [Structure 13]
0.59 nM | 16 nM | CC(=O)NCCc1ccccc1-c1ccc([C@H]2CNCC[C@@H]2c2cc(F)cc(F)c2)c(C)c1 [Structure 16]
0.5 nM | 5 nM | CC(=O)NCCc1ccccc1-c1ccc([C@H]2CNCC[C@]2(O)c2ccc(F)c(F)c2)c(C)c1 (racemic) [Structure 51]
0.26 nM | 3.8 nM | CC(=O)NCCc1ccccc1-c1ccc([C@H]2CNCC[C@]2(O)c2ccc(COCCOC(C)C)cc2)c(C)c1 (racemic) [Structure 56]
0.17 nM | 0.95 nM | COCC(F)(F)COCc1ccc([C@@]2(O)CCNC[C@@H]2c2ccc(-c3ccccc3CCNC(C)=O)cc2C)cc1 (racemic) [Structure 55]
0.13 nM | 1.2 nM | COC[C@H](C)COCc1ccc([C@@]2(O)CCNC[C@@H]2c2ccc(-c3ccccc3CCNC(C)=O)cc2C)cc1 (racemic) [Structure 54]
